According to US20150011751A1, “NOVEL TRIAZINE DERIVATIVE” (CARNA BIOSCIENCES, INC., priority 2012, published 2015):

target: Dephosphorylated BTK (Homo sapiens, UniProt Q06187); experiment: Test of activity inhibition against dephosphorylated BTK (mobility shift assay)
Sequence (Q06187 whole entry): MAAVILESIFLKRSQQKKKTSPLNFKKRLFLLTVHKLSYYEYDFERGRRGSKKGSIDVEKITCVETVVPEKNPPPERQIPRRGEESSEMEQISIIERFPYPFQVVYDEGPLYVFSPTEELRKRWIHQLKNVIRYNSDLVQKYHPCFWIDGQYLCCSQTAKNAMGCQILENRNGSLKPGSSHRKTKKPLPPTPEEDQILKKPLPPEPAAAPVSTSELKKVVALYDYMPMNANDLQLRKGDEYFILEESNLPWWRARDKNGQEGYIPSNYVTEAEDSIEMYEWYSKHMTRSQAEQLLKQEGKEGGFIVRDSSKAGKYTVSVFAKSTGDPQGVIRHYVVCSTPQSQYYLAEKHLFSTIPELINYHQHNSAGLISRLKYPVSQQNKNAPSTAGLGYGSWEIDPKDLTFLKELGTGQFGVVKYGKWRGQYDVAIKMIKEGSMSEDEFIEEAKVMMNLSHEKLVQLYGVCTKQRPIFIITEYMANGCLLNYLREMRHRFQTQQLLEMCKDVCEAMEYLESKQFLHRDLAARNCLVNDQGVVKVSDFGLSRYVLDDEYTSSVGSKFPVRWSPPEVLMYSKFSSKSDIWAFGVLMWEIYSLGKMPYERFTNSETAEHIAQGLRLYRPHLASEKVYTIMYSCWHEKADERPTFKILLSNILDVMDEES

Row | SMILES | IC50
1 | CC(C)(C#N)c1cc(F)c2c(c1)CCN(c1cccc(-c3nc(N)nc(Nc4cn[nH]c4)n3)c1CO)C2=O [Example 206, 2-[2-(3-{4-[(1H-Pyrazol-4-yl)amino]-6-amino-1,3,5-triazin-2-yl}-2-(hydroxymethyl)phe-nyl)-8-fluoro-1-oxo-1,2,3,4-tetrahydro-isoquinolin-6-yl]-2-meth-ylpropanenitrile] | 1 nM
2 | Nc1nc(Nc2cnn(C3CCOCC3)c2)nc(-c2cccc(N3CCc4cc(C5CC5)cc(F)c4C3=O)c2CO)n1 [Example 218, 2-[3-(4-Amino-6-{[1-(tetra-hydro-2H-pyran-4-yl)-1H-pyrazol-4-yl]amino}-1,3,5-triazin-2-yl)-2-(hydroxymethyl)phenyl]-6-cycloprop-yl-8-fluoro-3,4-dihydro-isoquinolin-1(2H)-one] | 0.2 nM
3 | Nc1nc(Nc2cccc(N3CCOCC3)c2)nc(-c2cccc(N3CCc4cc(C5CC5)cc(F)c4C3=O)c2CO)n1 [Example 243, 2-(3-{4-Amino-6-[(3-morpho-linophenyl)amino]-1,3,5-triazin-2-yl}-2-(hydroxymethyl)phe-nyl)-6-cyclopropyl-8-fluoro-3,4-dihydroiso-quinolin-1(2H)-one] | 2.3 nM
4 | COCCOc1ccc(Nc2nc(N)nc(-c3cccc(NC(=O)c4ccc(C(C)(C)C)cc4)c3C)n2)cc1 [Example 34, N-[3-(4-Amino-6-{[4-(2-methoxyethoxy)phenyl]amino}-1,3,5-triazin-2-yl)-2-methylphenyl]-4-(tert-butyl)benz-amide] | 4 nM
5 | CC(C)(C)c1ccc(C(=O)Nc2cccc(-c3nc(N)nc(Nc4cn[nH]c4)n3)c2CO)cc1 [Example 165, N-(3-{4-[(1H-Pyrazol-4-yl)amino]-6-amino-1,3,5-triazin-2-yl}-2-(hydroxymethyl)phenyl)-4-(tert-butyl)benzamide] | 0.7 nM
6 | CC(C)(C)c1ccc(C(=O)Nc2cccc(-c3nc(N)nc(Nc4ccc(N5CCNC5=O)cc4)n3)c2CO)cc1 [Example 167, N-[3-(4-Amino-6-{[4-(2-oxoimidazolidin-1-yl)phenyl]amino}-1,3,5-triazin-2-yl)-2-(hy-droxymethyl)phenyl]-4-(tert-butyl)benzamide] | 1.6 nM
7 | N#CCc1ccc(Nc2nc(N)nc(-c3cccc(N4CCc5cc(C6CC6)cc(F)c5C4=O)c3CO)n2)cc1 [Example 190, 2-[4-({4-Amino-6-[3-(6-cyclopropyl-8-fluoro-1-oxo-3,4-dihydroiso-quinolin-2(1H)-yl)-2-(hydroxymethyl)phenyl]-1,3,5-triazin-2-yl}amino)phenyl]acetonitrile] | 1.4 nM
8 | CC(C)(C)c1ccc(C(=O)Nc2cccc(-c3nc(N)nc(Nc4ccc(N5CCS(=O)(=O)CC5)cc4)n3)c2CO)cc1 [Example 124, N-[3-(4-Amino-6-{[4-(1,1-dioxidothiomorpho-lino)phenyl]amino}-1,3,5-triazin-2-yl)-2-(hy-droxymethyl)phenyl]-4-(tert-butyl)benzamide] | 0.5 nM
9 | Nc1nc(Nc2cnn([C@@H]3CCOC3)c2)nc(-c2cccc(N3CCc4cc(C5CC5)cc(F)c4C3=O)c2CO)n1 [Example 236, (R)-2-[3-(4-Amino-6-{[1-(tetrahydrofuran-3-yl)-1H-pyrazol-4-yl]amino}-1,3,5-triazin-2-yl)-2-(hydroxymeth-yl)phenyl]-6-cyclopropyl-8-fluoro-3,4-dihydro-isoquinolin-1(2H)-one] | 0.8 nM
10 | Nc1nc(Nc2ccc(N3CCOCC3)cc2)nc(-c2cccc(NC(=O)c3ccc4c(c3)CCCC4)c2CO)n1 [Example 102, N-(3-{4-Amino-6-[(4-morpholinophenyl)amino]-1,3,5-triazin-2-yl}-2-(hydroxymethyl)phe-nyl)-5,6,7,8-tetrahydro-naphthalene-2-carbox-amide] | 8.7 nM
11 | CC(C)(C)c1ccc(C(=O)Nc2cccc(-c3nc(N)nc(Nc4ccc(OCCO)cc4)n3)c2CO)cc1 [Example 184, N-[3-(4-Amino-6-{[4-(2-hydroxyethoxy)phenyl]amino}-1,3,5-triazin-2-yl)-2-(hydroxymeth-yl)phenyl]-4-(tert-butyl)benzamide] | 0.8 nM
12 | Cn1cc(Nc2nc(N)nc(-c3cccc(N4CCc5cc(C6CC6)cc(F)c5C4=O)c3CO)n2)cc1C(=O)O [Example 224, 4-({4-Amino-6-[3-(6-cyclo-propyl-8-fluoro-1-oxo-3,4-dihydroisoquinolin-2(1H)-yl)-2-(hydroxy-methyl)phenyl]-1,3,5-triazin-2-yl}ami-no)-1-methyl-1H-pyr-role-2-carboxylic acid] | 6.6 nM
13 | Nc1nc(Nc2ccc(N3CCOCC3)cc2)nc(-c2cccc(NC(=O)c3cc4c(s3)CCC4)c2CO)n1 [Example 175, N-(3-{4-Amino-6-[(4-morpholinophenyl)amino]-1,3,5-triazin-2-yl}-2-(hydroxymethyl)phe-nyl)-5,6-dihydro-4H-cyclopenta[b]thiophene-2-carboxamide] | 3.6 nM
14 | CC(C)(C)c1ccc(C(=O)Nc2cccc(-c3nc(N)nc(Nc4ccc(O)c(F)c4)n3)c2CO)cc1 [Example 113, N-(3-{4-Amino-6-[(3-fluoro-4-hydroxyphenyl)amino]-1,3,5-triazin-2-yl}-2-(hydroxymeth-yl)phenyl)-4-(tert-butyl)benzamide] | 2.6 nM
15 | Nc1nc(Nc2ccc(N3CCOCC3)cc2)nc(-c2cccc(N3CCc4c(sc5c4CCCC5)C3=O)c2CO)n1 [Example 227, 2-(3-{4-Amino-6-[(4-morpho-linophenyl)amino]-1,3,5-triazin-2-yl}-2-(hydroxymethyl)phe-nyl)-3,4,5,6,7,8-hexa-hydrobenzo[4,5]thieno [2,3-c]pyridin-1(2H)-one] | 3.5 nM
16 | CC(=O)Nc1ccc(Nc2nc(N)nc(-c3cccc(NC(=O)c4ccc(C(C)(C)C)cc4)c3CO)n2)cc1 [Example 119, N-(3-{4-[(4-Acetamido-phenyl)amino]-6-amino-1,3,5-triazin-2-yl}-2-(hydroxymethyl)phe-nyl)-4-(tert-butyl)benz-amide] | 0.8 nM
17 | CC(C)(O)Cn1cc(Nc2nc(N)nc(-c3cccc(N4CCc5cc(C6CC6)cc(F)c5C4=O)c3CO)n2)cn1 [Example 278, 2-[3-(4-Amino-6-{[1-(2-hydroxy-2-methylpro-pyl)-1H-pyrazol-4-yl]amino}-1,3,5-triazin-2-yl)-2-(hydroxymethyl)phenyl]-6-cyclopropyl-8-fluoro-3,4-dihydro-isoquinolin-1(2H)-one] | 2.2 nM
18 | CC(C)(C)c1ccc(C(=O)Nc2cccc(-c3nc(N)nc(Nc4cccc(O)c4)n3)c2CO)cc1 [Example 121, N-(3-{4-Amino-6-[(3-hy-droxyphenyl)amino]-1,3,5-triazin-2-yl}-2-(hydroxymethyl)phenyl)-4-(tert-butyl)benza-mide] | 1.2 nM
19 | Nc1nc(Nc2ccn([C@@H]3CCOC3)c2)nc(-c2cccc(N3CCc4cc(C5CC5)cc(F)c4C3=O)c2CO)n1 [Example 250, (R)-2-[3-(4-Amino-6-{[1-(tetrahydrofuran-3-yl)-1H-pyrrol-3-yl]ami-no}-1,3,5-triazin-2-yl)-2-(hydroyxmethyl)phenyl]-6-cyclopropyl-8-fluoro-3,4-dihydro-isoquinolin-1(2H)-one] | 1.5 nM
20 | Cc1c(NC(=O)c2ccc(C(C)(C)C)cc2)cccc1-c1nc(N)nc(Nc2ccc(N3CCC(O)CC3)cc2)n1 [Example 87, N-[3-(4-Amino-6-{[4-(4-hydroxypiperidin-1-yl)phenyl]amino}-1,3,5-triazin-2-yl)-2-meth-ylphenyl]-4-(tert-butyl)benzamide] | 1.4 nM
21 | Nc1nc(Nc2ccsc2)nc(-c2cccc(N3CCc4cc(C5CC5)cc(F)c4C3=O)c2CO)n1 [Example 228, 2-{3-[4-Amino-6-(thio-phen-3-ylamino)-1,3,5-triazin-2-yl]-2-(hy-droxymethyl)phenyl}-6-cyclopropyl-8-fluoro-3,4-dihydroisoquinolin-1(2H)-one] | 2.4 nM
22 | Nc1nc(Nc2cnn(CC(F)F)c2)nc(-c2cccc(N3CCc4cc(C5CC5)cc(F)c4C3=O)c2CO)n1 [Example 275, 2-[3-(4-Amino-6-{[1-(2,2-difluoroethyl)-1H-pyrazol-4-yl]amino}-1,3,5-triazin-2-yl)-2-(hydroxymethyl)phenyl]-6-cyclopropyl-8-fluoro-3,4-dihydroisoquinolin-1(2H)-one] | 1.7 nM
23 | CC1(Cn2cc(Nc3nc(N)nc(-c4cccc(N5CCc6cc(C7CC7)cc(F)c6C5=O)c4CO)n3)cn2)CC1 [Example 273, 2-{3-[4-Amino-6-({1-[(1-methylcyclopropyl)methyl]-1H-pyrazol-4-yl}amino)-1,3,5-triazin-2-yl]-2-(hydroxymeth-yl)phenyl}-6-cyclo-propyl-8-fluoro-3,4-di-hydroisoquinolin-1(2H)-one] | 2.4 nM
24 | CC(C)(C)c1ccc(C(=O)Nc2cccc(-c3nc(N)nc(Nc4cccc(Cn5cncn5)c4)n3)c2CO)cc1 [Example 162, N-{3-[4-({3-[(1H-1,2,4-Triazol-1-yl)methyl]phenyl}amino)-6-amino-1,3,5-triazin-2-yl]-2-(hydroxymethyl)phe-nyl}-4-(tert-butyl) benzamide] | 0.5 nM
25 | CN1CCN(c2ccc(Nc3nc(N)nc(-c4cccc(N5CCc6cc(C7CC7)cc(F)c6C5=O)c4CO)n3)cc2)CC1 [Example 193, 2-[3-(4-Amino-6-{[4-(4-methylpiperazin-1-yl)phenyl]amino}-1,3,5-triazin-2-yl)-2-(hy-droxymethyl)phenyl]-6-cyclopropyl-8-fluoro-3,4-dihydroisoquinolin-1(2H)-one] | 1.1 nM
26 | CN(C)CCOc1ccc(Nc2nc(N)nc(-c3cccc(NC(=O)c4ccc(C(C)(C)C)cc4)c3CO)n2)cc1 [Example 166, N-{3-[4-Amino-6-({4-[2-(dimethylamino)eth-oxy]phenyl}amino)-1,3,5-triazin-2-yl]-2-(hy-droxymethyl)phenyl}-4-(tert-butyl)benzamide] | 1 nM
27 | CC(C)(C)c1ccc(C(=O)Nc2cccc(-c3nc(N)nc(Nc4cccc(Cn5cccn5)c4)n3)c2CO)cc1 [Example 161, N-{3-[4-({3-[(1H-Pyra-zol-1-yl)methyl]phenyl}amino)-6-amino-1,3,5-triazin-2-yl]-2-(hy-droxymethyl)phenyl}-4-(tert-butyl)benzamide] | 1.1 nM
